Results reported in patent publication US20030199671A1, “Binding molecules for Fc-region polypeptides” (priority 2001, published 2003).
Where two headings read alike, the source gives them in different places. Positions of bridges follow the written chain, without caps; N, C: chain ends. Residues, ends and D or L forms follow the SMILES beside them. code X = not defined here; Su = not defined here

Assays:
[1] = test system: human IgG; experiment: Static (filterplate) binding capacity; settings: 25 mg human IgG applied per ml resin
Protocol: These media were used to determine the effect of ligand density on human IgG binding capacity in both static (filterplate) and dynamic (mini-column) modes with commercial immobilized recombinant Protein A (Repligen, IPA400) at a single density as control. Actual ligand densities obtained ranged from 0.17 to 3.2 μmole/ml media as confirmed by quantitative amino acid analysis.
After incubation of the samples, with shaking, at room temperature for one hour, the supernatant liquid from each well, containing unbound IgG, was collected by centrifugation into the cognate well of a collection plate. The assay plate was washed three times with PBST (200 μl/wash) and bound IgG was eluted from the media samples by incubation for 30-60 minutes at room temperature in 100 μl Elution Buffer (100 mM CAPS, pH 11.5). Eluates were collected by centrifugation for analysis. Protein concentrations were determined from A280 measurements and plotted as a function of mg human IgG bound per ml resin vs. mg human IgG applied per ml resin.
The amount of IgG captured (estimated from IgG recovered in the elution step) by the various media is dependent upon both the IgG concentration and the ligand density. […] Under these static conditions, where both ligand and target concentrations are close to KD values, equilibrium binding is established and total capacities cannot be accurately determined. However, over the IgG range of 0 to 25 mg IgG applied per ml resin (0 to 2.5 mg/ml target added to 10 μl of resin), capture of IgG is linear. Beyond this point, up to a level of 200 mg IgG applied per ml resin, saturation becomes more pronounced.

[2] = biological target: IgG4 (Homo sapiens, UniProt P01861); type: binding; design: all human subtypes derived from myeloma patients; purchased Calbiochem 400126; host or cells: myeloma patients
Protocol: (§1) In addition, the following targets, all unfractionated IgGs, were also evaluated with selected immobilized peptides for species specificity characterization in a similar format: human IgG, goat IgG, bovine IgG, and mouse IgG (Sigma, product nos. I4506, I5256, I5506, and I15381, respectively). In addition, 10 μl aliquots of hydrolyzed NHS-activated Sepharose 4 Fast Flow (Amersham Pharmacia Biotech, product no. 17-0906-01) and immobilized recombinant Protein A (RepliGen Corp., product no. IPA-400) were also assayed as negative and positive controls. IgG targets were diluted into 10 mM phosphate buffer containing 150 mM NaCl and 0.01% Tween 20, pH 7.2 (PBST) or 50 mM Tris buffer containing, 150 mM NaCl and 0.01% Tween-20, pH 7.5 (TBST). Batch (static) binding and elution studies were conducted in a 96-well assay filterplate (Millipore MultiScreen-HV, with 0.45 μm Durapore membrane, product no. MAHVN4510). The target was allowed to incubate with the resin for 1-1.5 hours with shaking at room temperature. Unbound target was collected by centrifugation of samples from the assay plate directly into a low-UV absorbing 96-well collection plate (Costar, product no. 3635 or Greiner, product no. 655801). The unbound target was then quantitated by reading the absorbance at 280 nm (normalized to 1 cm pathlength, 1.4 mg/ml A280 extinction coefficient) of the collection plate on a microplate spectrophotometer (Molecular Devices Corp., SPECTRAmax PLUS) against a buffer blank.
(§2) The percentage bound target was determined by subtracting the mass determined as unbound from the corresponding condition's control values (control non-filtered added directly to the collection plate and/or the negative control). The assay plate was washed (3×) with 200 μl of binding buffer by vacuum filtration followed by addition of 100 μl of various elution conditions (e.g.: 0.1 M sodium bicarbonate buffer, pH 8.5 and/or 0.1 M sodium citrate buffer, pH 4.0). After a 30-60 minute incubation with shaking at room temperature, the eluted target was collected by centrifugation of the assay plate into another collection plate and quantitated in a similar manner. Percent elution of total load was then determined to characterize elution recovery efficiency under various conditions. The assay plate was then washed (3×) with 200 μl of binding buffer by vacuum filtration followed by addition of a resin cleaning condition (e.g., 0.1M CAPS buffer (3-[Cyclohexylamino]-1-propane-sulfonic acid), pH 11.5, to regenerate the resin for re-use. Percentage mass balance determination was calculated to be 90-100% on average.

[3] = test system: human IgG; type: binding; settings: for Batch Binding (% Capture of Total Load) hIgG: Table 18, average ligand density 1.9 μmole/ml
Protocol: as §1, §2

[4] = biological target: T1, human IgG2 (Homo sapiens, UniProt P01859); type: binding
T1 construct: all human subtypes derived from myeloma patients; purchased Calbiochem 400122; host or cells: myeloma patients
Protocol: as §1, §2

[5] = biological target: T2, human IgG1 (Homo sapiens, UniProt P01857); type: binding
T2 construct: all human subtypes derived from myeloma patients; purchased Calbiochem 400120; host or cells: myeloma patients
Protocol: as §1, §2

[6] = test system: mouse IgG; type: binding; settings: Table 14; average ligand density 1.8 μM/ml
Protocol: as §1, §2

[7] = biological target: T3, human plasma IgG1 (Homo sapiens, UniProt P01857); experiment: Fluorescence anisotropy binding, Oregon Green labeled peptide
T3 construct: the individual human plasma IgG isoforms: IgG1, IgG2, IgG3, or IgG4; purchased Calbiochem; host or cells: human plasma
Protocol: (§3) Peptides were synthesized by BACHEM and then Oregon Green labeled and HPLC purified. Binding studies were performed using human plasma IgG isoforms: IgG1, IgG2, IgG3, and IgG4, obtained from Calbiochem.
(§4) Binding studies were carried out at either pH 4.0, 7.5, or 9.5, with or without salt in the following buffers:
(§5) 2) 10 mM Sodium Citrate, 500 mM Sodium Chloride, 0.01% Tween 20, pH 4.0;
(§6) 4) […], 500 mM Sodium Chloride, 0.01% Tween 20, pH 7.5;
(§7) 5) 10 mM Sodium Bicarbonate, 0.01% Tween 20, pH 9.5;
(§8) 6) 10 mM Sodium Bicarbonate, 500 mM Sodium Chloride, 0.01% Tween 20, pH 9.5; or […]

[8] = biological target: T4, human plasma IgG4 (Homo sapiens, UniProt P01861); experiment: as above
T4 construct: the individual human plasma IgG isoforms: IgG1, IgG2, IgG3, or IgG4; purchased Calbiochem; host or cells: human plasma
Protocol: as §3, §4, §5, §6, §7, §8

[9] = biological target: T5, human plasma IgG3 (Homo sapiens, UniProt P01860); experiment: as above
T5 construct: the individual human plasma IgG isoforms: IgG1, IgG2, IgG3, or IgG4; purchased Calbiochem; host or cells: human plasma
Protocol: as §3, §4, §5, §6, §7, §8

[10] = biological target: T6, human plasma IgG2 (Homo sapiens, UniProt P01859); experiment: as above
T6 construct: the individual human plasma IgG isoforms: IgG1, IgG2, IgG3, or IgG4; purchased Calbiochem; host or cells: human plasma
Protocol: as §3, §4, §5, §6, §7, §8

[11] = Table 18, average ligand density 1.9 μmole/ml

T5 sequence (P01860 1-377 isoform P01860-1): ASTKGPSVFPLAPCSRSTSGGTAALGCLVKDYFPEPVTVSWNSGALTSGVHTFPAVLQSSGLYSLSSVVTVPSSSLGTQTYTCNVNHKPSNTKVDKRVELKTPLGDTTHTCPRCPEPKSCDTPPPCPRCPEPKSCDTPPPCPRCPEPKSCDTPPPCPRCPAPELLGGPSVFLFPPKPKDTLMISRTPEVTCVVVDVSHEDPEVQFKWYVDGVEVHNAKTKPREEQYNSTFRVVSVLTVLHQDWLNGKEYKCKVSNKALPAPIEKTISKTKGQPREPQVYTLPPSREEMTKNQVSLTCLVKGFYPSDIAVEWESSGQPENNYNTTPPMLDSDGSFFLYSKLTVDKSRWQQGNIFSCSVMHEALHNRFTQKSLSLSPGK
IgG4, sequence (P01861 1-327 isoform P01861-1): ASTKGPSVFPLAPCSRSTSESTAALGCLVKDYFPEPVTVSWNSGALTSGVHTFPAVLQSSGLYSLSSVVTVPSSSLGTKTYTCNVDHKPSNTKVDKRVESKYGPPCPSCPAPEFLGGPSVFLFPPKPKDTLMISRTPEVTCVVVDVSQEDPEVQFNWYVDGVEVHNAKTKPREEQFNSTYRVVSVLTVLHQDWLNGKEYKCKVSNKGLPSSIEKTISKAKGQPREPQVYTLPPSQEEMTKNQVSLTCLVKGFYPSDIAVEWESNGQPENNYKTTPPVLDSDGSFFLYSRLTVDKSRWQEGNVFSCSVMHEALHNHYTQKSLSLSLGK
T4 sequence (P01861 1-327 isoform P01861-1): as above
T1 sequence (P01859 1-326 isoform P01859-1): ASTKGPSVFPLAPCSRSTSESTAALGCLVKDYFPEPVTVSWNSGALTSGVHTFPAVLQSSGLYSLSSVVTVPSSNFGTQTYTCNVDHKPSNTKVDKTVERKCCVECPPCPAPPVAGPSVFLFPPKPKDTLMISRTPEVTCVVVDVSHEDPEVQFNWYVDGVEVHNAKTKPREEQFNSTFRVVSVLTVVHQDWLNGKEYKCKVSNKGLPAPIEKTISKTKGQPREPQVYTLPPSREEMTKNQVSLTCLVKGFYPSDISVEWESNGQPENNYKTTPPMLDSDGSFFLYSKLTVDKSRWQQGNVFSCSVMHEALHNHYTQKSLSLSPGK
T6 sequence (P01859 1-326 isoform P01859-1): as above
T2 sequence (P01857 1-330 isoform P01857-1): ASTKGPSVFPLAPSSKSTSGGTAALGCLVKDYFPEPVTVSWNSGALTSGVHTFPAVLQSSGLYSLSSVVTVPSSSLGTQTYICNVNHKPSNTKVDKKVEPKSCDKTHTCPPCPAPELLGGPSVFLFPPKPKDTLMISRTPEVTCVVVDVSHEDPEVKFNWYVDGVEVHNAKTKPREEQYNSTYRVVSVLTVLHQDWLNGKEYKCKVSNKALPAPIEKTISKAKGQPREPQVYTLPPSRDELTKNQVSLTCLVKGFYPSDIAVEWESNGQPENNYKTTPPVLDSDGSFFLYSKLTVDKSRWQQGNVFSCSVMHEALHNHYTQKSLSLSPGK
T3 sequence (P01857 1-330 isoform P01857-1): as above

## Ac-GDDHMCVYTTWGELIWCDNH-X-Su-X-NH2 (Ac-GDDHMCVYTTWGELIWCDNH-{code X-Su-code X-NH2}; not fully specified (bridges); printed as Ac-GDDHMCVYTTWGELIWCDNH-X-Su-X-NH2; cysteine pairing not given here; reading uncertain) [DX909]
[1]
  Decrease in apparent relative static capacity compared to DX249, DX877 and DX878: ~2 fold
[2]; [11]
  Batch Binding (% Capture of Total Load) hIgG4: 33%
[3]
  Batch Binding (% Capture of Total Load) hIgG: 49%
[4]; [11]
  Batch Binding (% Capture of Total Load) hIgG2: 54%
[5]; [11]
  Batch Binding (% Capture of Total Load) hIgG1: 66%

## Ac-GDDHMCVYTTWGELIWCDNHEPG-X-Su-X-NH2 (Ac-GDDHMCVYTTWGELIWCDNHEPG-{code X-Su-code X-NH2}; not fully specified (bridges); printed as Ac-GDDHMCVYTTWGELIWCDNHEPG-X-Su-X-NH2; cysteine pairing not given here; reading uncertain) [DX878]
[1]; [11]
  Static Cap.: 23 mg/mL
[3]
  Batch Binding (% Capture of Total Load) hIgG: 63%

## Ac-GDSWNCAFHHNEMVWCDDGGTPGPEGGGK-NH2 (not fully specified (bridges); printed as Ac-GDSWNCAFHHNEMVWCDDGGTPGPEGGGK-NH2; cysteine pairing not given here) [DX597]
[2]; Table 13
  hIgG4 elution pH 2.5 (% of Total Load): 50%
  hIgG4 elution pH 3.5 (% of Total Load): 62%
  hIgG4 elution pH 4.5 (% of Total Load): 13%
  hIgG4 elution pH 5.5 (% of Total Load): 3%
  hIgG4 elution pH 9.0 (% of Total Load): 56%
  hIgG4 elution pH 9.5 (% of Total Load): 67%
[6]
  % IgG Capture - Batch Binding, Mouse IgG: 3%
[3]; Table 14, average ligand density 1.8 μM/ml
  % IgG Capture - Batch Binding, Human IgG: 77%
[4]; Table 13
  hIgG2 elution pH 2.5 (% of Total Load): 82%
  hIgG2 elution pH 3.5 (% of Total Load): 80%
  hIgG2 elution pH 4.5 (% of Total Load): 38%
  hIgG2 elution pH 5.5 (% of Total Load): 1%
  hIgG2 elution pH 9.0 (% of Total Load): 51%
  hIgG2 elution pH 9.5 (% of Total Load): 60%
[5]; Table 13
  hIgG1 elution pH 2.5 (% of Total Load): 76%
  hIgG1 elution pH 3.5 (% of Total Load): 81%
  hIgG1 elution pH 4.5 (% of Total Load): 39%
  hIgG1 elution pH 5.5 (% of Total Load): 1%
  hIgG1 elution pH 9.0 (% of Total Load): 52%
  hIgG1 elution pH 9.5 (% of Total Load): 57%

## CC(=O)N[C@@H](C)C(=O)NCC(=O)N[C@@H](Cc1ccc(O)cc1)C(=O)N[C@@H](Cc1c[nH]c2ccccc12)C(=O)N[C@@H](Cc1ccc(O)cc1)C(=O)N[C@H]1CSSC[C@@H](C(=O)N2CCC[C@H]2C(=O)N[C@@H](CC(C)C)C(=O)N[C@@H](Cc2ccc(O)cc2)C(=O)N2CCC[C@H]2C(=O)NCC(=O)N2CCC[C@H]2C(=O)N[C@@H](CCC(=O)O)C(=O)NCC(=O)NCC(=O)NCC(=O)N[C@@H](CCCCN)C(N)=O)NC(=O)[C@H](CCC(=O)O)NC(=O)[C@@H]2CCCN2C(=O)[C@H](CCCNC(=N)N)NC(=O)[C@H](CC(=O)O)NC(=O)[C@@H]2CCCN2C(=O)[C@H](Cc2ccccc2)NC(=O)[C@H](Cc2c[nH]c3ccccc23)NC1=O [DX413] (Ac-AGYWYCWFPDRPECPLYPGPEGGGK-NH2; disulfide 6-14 (inferred))
[7]; 10 nM Tris-HCl, 500 mM Sodium Chloride, pH 7.5, read-out: KD (μM) IgG1 pH 7.5 + salt
  Kd: > 10 µM
[7]; 10 mM Sodium Bicarbonate, 500 mM Sodium Chloride, pH 9.5, read-out: KD (μM) IgG1 pH 9.5 + salt
  Kd: > 10 µM
[7]; 10 mM Sodium Bicarbonate, pH 9.5, read-out: KD (μM) IgG1 pH 9.5 − salt
  Kd: > 10 µM
[7]; 10 mM Sodium Citrate, 500 mM Sodium Chloride, pH 4.0, read-out: KD (μM) IgG1 pH 4.0 + salt
  Kd: > 10 µM
[7]; 10 mM Sodium Citrate, pH 4.0, read-out: KD (μM) IgG1 pH 4.0 − salt
  Kd: > 10 µM
[7]; 10 mM Tris-HCl, pH 7.5, read-out: KD (μM) IgG1 pH 7.5 − salt
  Kd: > 10 µM
[8]; 10 nM Tris-HCl, 500 mM Sodium Chloride, pH 7.5, read-out: KD (μM) IgG4 pH 7.5 + salt
  Kd: > 10 µM
[8]; 10 mM Sodium Bicarbonate, 500 mM Sodium Chloride, pH 9.5, read-out: KD (μM) IgG4 pH 9.5 + salt
  Kd: > 10 µM
[8]; 10 mM Sodium Bicarbonate, pH 9.5, read-out: KD (μM) IgG4 pH 9.5 − salt
  Kd: > 10 µM
[8]; 10 mM Sodium Citrate, 500 mM Sodium Chloride, pH 4.0, read-out: KD (μM) IgG4 pH 4.0 + salt
  Kd: > 10 µM
[8]; 10 mM Sodium Citrate, pH 4.0, read-out: KD (μM) IgG4 pH 4.0 − salt
  Kd: > 10 µM
[8]; 10 mM Tris-HCl, pH 7.5, read-out: KD (μM) IgG4 pH 7.5 − salt
  Kd: > 10 µM
[9]; 10 nM Tris-HCl, 500 mM Sodium Chloride, pH 7.5, read-out: KD (μM) IgG3 pH 7.5 + salt
  Kd: > 10 µM
[9]; 10 mM Sodium Bicarbonate, 500 mM Sodium Chloride, pH 9.5, read-out: KD (μM) IgG3 pH 9.5 + salt
  Kd: > 10 µM
[9]; 10 mM Sodium Bicarbonate, pH 9.5, read-out: KD (μM) IgG3 pH 9.5 − salt
  Kd: > 10 µM
[9]; 10 mM Sodium Citrate, 500 mM Sodium Chloride, pH 4.0, read-out: KD (μM) IgG3 pH 4.0 + salt
  Kd: ~1 µM
[9]; 10 mM Sodium Citrate, pH 4.0, read-out: KD (μM) IgG3 pH 4.0 − salt
  Kd: ~1 µM
[9]; 10 mM Tris-HCl, pH 7.5, read-out: KD (μM) IgG3 pH 7.5 − salt
  Kd: > 10 µM
[10]; 10 nM Tris-HCl, 500 mM Sodium Chloride, pH 7.5, read-out: KD (μM) IgG2 pH 7.5 + salt
  Kd: > 10 µM
[10]; 10 mM Sodium Bicarbonate, 500 mM Sodium Chloride, pH 9.5, read-out: KD (μM) IgG2 pH 9.5 + salt
  Kd: > 10 µM
[10]; 10 mM Sodium Bicarbonate, pH 9.5, read-out: KD (μM) IgG2 pH 9.5 − salt
  Kd: > 10 µM
[10]; 10 mM Sodium Citrate, 500 mM Sodium Chloride, pH 4.0, read-out: KD (μM) IgG2 pH 4.0 + salt
  Kd: > 10 µM
[10]; 10 mM Sodium Citrate, pH 4.0, read-out: KD (μM) IgG2 pH 4.0 − salt
  Kd: > 10 µM
[10]; 10 mM Tris-HCl, pH 7.5, read-out: KD (μM) IgG2 pH 7.5 − salt
  Kd: > 10 µM
